Patent US9216954B2, “Serine racemase inhibitor” (National University Corporation University of Toyama, priority 2012, dated 2015)

SMILES: O=C(/C=C/c1cc(Br)cc(Br)c1)NC(=S)NNC(=O)Cc1cccs1 [LW-7, 3-(3,5-Dibromo-phenyl)-N—[N′-(2-thiophen-2-yl-acetyl)-hydrazinocarbothioyl]-acrylamide]
- melting point: 212 to 213 °C

SMILES: O=C(CNS(=O)(=O)Cc1ccccc1)Nc1c(F)cccc1F [DR-1, N-(2,6-difluorophenyl)-2-phenylmethanesulfonylaminoacetamide]
- melting point: 141 to 142 °C

SMILES: O=C(CNC(=O)COc1ccc(Br)cc1)NCc1ccc(Br)cc1 [MM-28, N-[(4-Bromo-benzylcarbamoyl)-methyl]-2-(4-bromo-phenoxy)-acetamide]
- melting point: 208 to 209 °C

SMILES: O=C(CNS(=O)(=O)Cc1ccccc1)Nc1ccc(Cl)cc1 [DR-14, N-(4-Chloro-phenyl)-2-phenylmethanesulfonylamino-acetamide]
- melting point: 200 to 201 °C

SMILES: COc1ccc(NC(=O)CNC(=O)COc2ccc(Br)cc2)c(C)c1 [MM-3, 2-(4-Bromo-phenoxy)-N-[(4-methoxy-2-methyl-phenylcarbamoyl)-methyl]-acetamide]
- melting point: 159 to 160 °C

SMILES: Cc1ccc(S(=O)(=O)NCC(=O)NCc2ccc(Br)cc2F)cc1 [DR-11, N-(4-Bromo-2-fluoro-benzyl)-2-(toluene-4-sulfonylamino)-acetamide]
- melting point: 123 to 124 °C

SMILES: O=C(COc1ccc(F)cc1)NCC(=O)Nc1ccc(I)cc1 [MM-7, 2-(4-Fluoro-phenoxy)-N-[(4-iodo-phenylcarbamoyl)-methyl]-acetamide]
- melting point: 190 to 191 °C

SMILES: COc1ccc(NC(=O)CNC(=O)COc2ccc(Cl)cc2)c(C)c1 [MM-2, 2-(4-Chloro-phenoxy)-N-[(4-methoxy-2-methyl-phenylcarbamoyl)-methyl]-acetamide]
- melting point: 170 to 171 °C

SMILES: O=C(COc1ccc(Br)cc1)NCC(=O)Nc1ccc(I)cc1 [MM-5, 2-(4-Bromo-phenoxy)-N-[(4-iodo-phenylcarbamoyl)-methyl]acetamide]
- melting point: 211 to 212 °C

SMILES: O=C(/C=C/c1ccc([N+](=O)[O-])cc1)NC(=S)NNC(=O)Cc1cccs1 [LW-3, 3-(4-Nitro-phenyl)-N—[N′-(2-thiophen-2-yl-acetyl)-hydrazinocarbothioyl]-acrylamide]
- melting point: 222 to 223 °C

SMILES: O=C(COc1ccc(O)cc1)NCC(=O)Nc1c(F)cccc1F [MM-35, N-[(2,6-difluorophenylcarbamoyl)methyl]-2-(4-hydroxyphenoxy)acetamide]
- melting point: 197 to 198 °C

SMILES: O=C(COc1ccc(Br)cc1)NCC(=O)Nc1ccc(F)cc1 [MM-8, 2-(4-Bromo-phenoxy)-N-[(4-fluoro-phenylcarbamoyl)-methyl]-acetamide]
- melting point: 213 to 214 °C

SMILES: O=C(COc1ccc(Br)cc1)NCC(=O)Nc1c(F)cccc1F [MM-15, 2-(4-Bromo-phenoxy)-N-[(2,6-difluoro-phenylcarbamoyl)-methyl]-acetamide]
- melting point: 173 to 174 °C

SMILES: O=C(/C=C/c1cc(Br)cc(Br)c1)NC(=S)NNC(=O)c1cccs1 [LW-20, 3-(3,5-Dibromo-phenyl)-N—[N′-(thiophene-2-carbonyl)-hydrazinocarbothioyl]-acrylamide]
- melting point: 217 to 218 °C

SMILES: O=C(COc1ccc(F)cc1)NCC(=O)Nc1ccc(F)cc1 [MM-9, 2-(4-Fluoro-phenoxy)-N-[(4-fluoro-phenylcarbamoyl)-methyl]-acetamide]
- melting point: 202 to 203 °C

SMILES: Cc1cccc(OCC(=O)NCC(=O)Nc2ccc(O)cc2)c1 [MM-37, N-[(4-hydroxyphenylcarbamoyl)methyl]-2-m-tolyloxyacetamide]
- melting point: 186 to 187 °C

SMILES: Cc1ccc(/C=C/S(=O)(=O)NCC(=O)Nc2ccc(Br)cc2)cc1 [DR-33, N-(4-Bromo-phenyl)-2-(2-p-tolyl-ethenesulfonylamino)-acetamide]
- melting point: 216 to 219 °C

SMILES: O=C(/C=C/c1ccc(F)cc1)NC(=S)NNC(=O)c1cccs1 [LW-16, 3-(4-Fluoro-phenyl)-N—[N′-(thiophene-2-carbonyl)-hydrazinocarbothioyl]-acrylamide]
- melting point: 217 to 218 °C
